This test concerns P. falciparum Dd2 in RBCs, SYBR green growth. The experiment in a line: growth inhibition of P. falciparum blood stages, dose response, PfHsp90 inhibitor project, Dd2 strain, red blood cells, dry powder (AID 588838).

Regarding `O=S(=O)(NC1CC2CCC1C2)c1ccc(Cl)cc1` (stereo unspecified), the concentration at half-maximal activity (AC50) is 98.5 µM.
With `COc1ccc2c(c1)C=C(C(=O)NCc1ccc(Cl)cc1)CO2`, the AC50 was 43.9 µM.
Turning to `O=S(=O)(NC1CCCCCC1)c1ccc(Br)s1`, the AC50 was 16.3 µM.
For the compound `O=S(=O)(/C=C/c1ccccc1)NC1CCCCCCC1`, the AC50 was 66.1 µM.
In the case of `Cc1ccc(OCc2n[nH]c(=S)n2C2CCCCC2)cc1` it was 60.6 µM.
`O=C(CSCC(=O)N1CCCCC1)Nc1nc(-c2ccc(Cl)s2)cs1`: the AC50 was 40 µM.

Usually AC50 stands for the concentration giving half of the maximal activity seen.
